Assays:
HeLa = experiment: Cytotoxicity against human HeLa cells by MTT assay; type: functional, cell-based
A549 = experiment: Cytotoxicity against human A549 cells by MTT assay; type: functional, cell-based

CCCCOc1cc2c(cc1[C@@]1(C(=O)OC)C[C@@H]3C=C(CC)CN(Cc4c1[nH]c1ccccc41)C3)[C@@]13CCN4CC=C[C@@](CC)([C@@H](OC(C)=O)[C@](O)(COC(C)=O)[C@@H]1N2C)[C@H]43
IC50 (HeLa): 89 nM | IC50 (A549): 94 nM

CCC1=C[C@@H]2CN(C1)Cc1c([nH]c3ccccc13)[C@@](C(=O)OC)(c1cc3c(cc1OC(C)=O)N(C)[C@H]1[C@@](O)(COC(C)=O)[C@H](OC(C)=O)[C@]4(CC)C=CCN5CC[C@]31[C@@H]54)C2
IC50 (HeLa): 49 nM | IC50 (A549): 56 nM

CCCOc1cc2c(cc1[C@@]1(C(=O)OC)C[C@@H]3C=C(CC)CN(Cc4c1[nH]c1ccccc41)C3)[C@@]13CCN4CC=C[C@@](CC)([C@@H](OC(C)=O)[C@](O)(COC(C)=O)[C@@H]1N2C)[C@H]43
IC50 (HeLa): 45 nM | IC50 (A549): 51 nM

CCC1=C[C@@H]2CN(C1)Cc1c([nH]c3ccccc13)[C@@](C(=O)OC)(c1cc3c(cc1OC)N(C)[C@H]1[C@@](O)(COC(C)=O)[C@H](OC(C)=O)[C@]4(CC)C=CCN5CC[C@]31[C@@H]54)C2
IC50 (HeLa): 5 nM | IC50 (A549): 7 nM

CCCCCCCOc1cc2c(cc1[C@@]1(C(=O)OC)C[C@@H]3C=C(CC)CN(Cc4c1[nH]c1ccccc41)C3)[C@@]13CCN4CC=C[C@@](CC)([C@@H](OC(C)=O)[C@](O)(COC(C)=O)[C@@H]1N2C)[C@H]43
IC50 (HeLa): 317 nM | IC50 (A549): 331 nM

CCC1=C[C@@H]2CN(C1)Cc1c([nH]c3ccccc13)[C@@](C(=O)OC)(c1cc3c(cc1OCCOC(C)=O)N(C)[C@H]1[C@@](O)(COC(C)=O)[C@H](OC(C)=O)[C@]4(CC)C=CCN5CC[C@]31[C@@H]54)C2
IC50 (HeLa): 77 nM | IC50 (A549): 83 nM

CCC1=C[C@@H]2CN(C1)Cc1c([nH]c3ccccc13)[C@@](C(=O)OC)(c1cc3c(cc1OC)N(C)[C@H]1[C@@](O)(C(=O)OC)[C@H](OC(C)=O)[C@]4(CC)C=CCN5CC[C@]31[C@@H]54)C2 [VINORELBINE]
IC50 (HeLa): 9 nM | IC50 (A549): 10 nM

CCC1=C[C@@H]2CN(C1)Cc1c([nH]c3ccccc13)[C@@](C(=O)OC)(c1cc3c(cc1OC(C)C)N(C)[C@H]1[C@@](O)(COC(C)=O)[C@H](OC(C)=O)[C@]4(CC)C=CCN5CC[C@]31[C@@H]54)C2
IC50 (HeLa): 209 nM | IC50 (A549): 236 nM

CCOc1cc2c(cc1[C@@]1(C(=O)OC)C[C@@H]3C=C(CC)CN(Cc4c1[nH]c1ccccc41)C3)[C@@]13CCN4CC=C[C@@](CC)([C@@H](OC(C)=O)[C@](O)(COC(C)=O)[C@@H]1N2C)[C@H]43
IC50 (HeLa): 11 nM | IC50 (A549): 13 nM
